Results reported in ChEMBL document CHEMBL1128760, “CCKB selective receptor ligands: novel 1,3,5-trisubstituted benzazepin-2-ones” (Bioorg Med Chem Lett, 1995).

Molecular target: T1, Cholecystokinin receptor type A (Rattus norvegicus, UniProt P30551)
T1 sequence (P30551 whole entry): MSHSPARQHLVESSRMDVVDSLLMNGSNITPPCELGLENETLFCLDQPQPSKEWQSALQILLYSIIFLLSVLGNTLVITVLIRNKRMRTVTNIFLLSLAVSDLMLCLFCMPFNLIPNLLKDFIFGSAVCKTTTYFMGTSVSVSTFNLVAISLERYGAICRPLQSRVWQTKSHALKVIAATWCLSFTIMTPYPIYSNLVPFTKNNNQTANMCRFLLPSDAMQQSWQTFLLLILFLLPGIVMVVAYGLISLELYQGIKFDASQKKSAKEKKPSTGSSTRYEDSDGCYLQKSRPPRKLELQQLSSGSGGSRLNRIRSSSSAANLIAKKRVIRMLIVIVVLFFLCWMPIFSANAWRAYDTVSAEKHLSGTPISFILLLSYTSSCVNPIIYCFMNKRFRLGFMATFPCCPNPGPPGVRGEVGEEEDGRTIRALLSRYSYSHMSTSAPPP
Test: Inhibitory activity against Cholecystokinin type A receptor in rat pancreas using [125 I ]- CCK-8 as radioligand.

SMILES: Cc1cccc(NC(=O)N[C@@H]2C[C@H](N3CCCCCC3)c3ccccc3N(C)C2=O)c1
- IC50: 121 nM

SMILES: Cc1cccc(NC(=O)N[C@@H]2C[C@@H](N3CCCCCC3)c3ccccc3N(C)C2=O)c1
- IC50: 646 nM
